Measured values as given in ChEMBL document CHEMBL1201862, “PubChem BioAssay data set” (2004).
Calls of active or inactive are those of the source.

Experiments:
[1] = target: T1, Eukaryotic translation initiation factor 2-alpha kinase 3 (Homo sapiens, UniProt Q9NZJ5); test: Counterscreen assay for PERK inhibitors: Dose response cell-based high throughput screening assay to measure inhibition of PERK at 6 hours. [Related pubchem assays: 1522, 1416 ]; format: functional
[2] = target: T1, Eukaryotic translation initiation factor 2-alpha kinase 3; test: Dose response cell-based high-throughput screening assay to measure PERK inhibition. [Related pubchem assays: 1416 ]; format: functional
Procathepsin L = Procathepsin L (Homo sapiens, UniProt P07711)
[3] = target: RNA-editing ligase 1, mitochondrial (Trypanosoma brucei brucei, UniProt P86926); test: TbREL1 ligase inhibitors, dose response, biochemical, fluorescence, Trypanosoma brucei (AID 1117295); format: functional
Aspartyl aminopeptidase = target: T2, Aspartyl aminopeptidase (Plasmodium falciparum 3D7, UniProt Q8I2J3)
T2 sequence (Q8I2J3 whole entry): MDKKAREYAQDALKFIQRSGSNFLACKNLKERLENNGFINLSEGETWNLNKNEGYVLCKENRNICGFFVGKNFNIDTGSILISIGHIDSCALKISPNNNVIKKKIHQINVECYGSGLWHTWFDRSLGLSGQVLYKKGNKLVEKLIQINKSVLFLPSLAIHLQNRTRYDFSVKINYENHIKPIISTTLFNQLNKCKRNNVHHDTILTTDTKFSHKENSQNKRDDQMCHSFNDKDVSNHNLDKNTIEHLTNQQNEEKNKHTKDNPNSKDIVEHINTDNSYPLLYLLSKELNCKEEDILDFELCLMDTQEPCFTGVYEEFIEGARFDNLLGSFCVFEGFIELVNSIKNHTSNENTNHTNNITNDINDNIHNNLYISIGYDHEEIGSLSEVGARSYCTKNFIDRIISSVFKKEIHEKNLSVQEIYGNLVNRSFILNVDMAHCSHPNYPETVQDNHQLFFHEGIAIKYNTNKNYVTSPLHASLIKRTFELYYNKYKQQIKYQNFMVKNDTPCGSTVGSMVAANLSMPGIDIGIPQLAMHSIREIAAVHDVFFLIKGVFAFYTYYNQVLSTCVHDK

Large T antigen = Large T antigen (Simian virus 40, UniProt P03070); format: functional, Betapolyomavirus macacae;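 further: Confirmatory-stage PubChem screen for compounds that inhibit SV40 T antigen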
[4] = target: Lysosomal acid glucosylceramidase (Homo sapiens, UniProt P04062); test: Dose response cell-based high throughput screening assay to identify enhancers of beta-glucosidase activity. [Related pubchem assays: 784 ]; format: functional
Estrogen receptor beta [5] = target: T3, Estrogen receptor beta (Homo sapiens, UniProt Q92731); test: ERβ–SRC-3 coactivator interaction inhibitors, confirmation, orthogonal assay, biochemical, ELISA, streptavidin-HRP readout (AID 1060)
Estrogen receptor beta [6] = target: T3, Estrogen receptor beta
Bcl-2-like protein 10 = Bcl-2-like protein 10 (Homo sapiens, UniProt Q9HD36); test: displacers of TR3 peptide from Bcl-B, primary screen, selectivity assay for Bfl-1 inhibitor project, biochemical, fluorescence polarization, FITC-TR3 peptide (AID 748);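 further: fluorescence polarization from a fluorescein-labelled TR3 peptide binding purified Bcl-B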
Vibrio harveyi [7] = test: Quorum Sensing, LuxS, LuxPQ Measured in Microorganism System Using Plate Reader - 2035-01_Inhibitor_DoseNoFile_DryPowder_Activity. [Related pubchem assays (depositor defined):AID2106]; format: functional, organism-based
Vibrio harveyi [8] = test: inhibitors of AI-2 quorum sensing in V. harveyi, dose response, LuxS, LuxPQ, dry powder, set 2 (AID 493072); format: functional, organism-based
Protein Rev = Protein Rev (Human immunodeficiency virus type 1 group M subtype B (isolate WMJ22)(HIV-1), UniProt P05866); test: HIV-1 Rev-RRE RNA binding disruptors, dose response, biochemical, protein-RNA interaction (AID 842); set-up: species or system Human immunodeficiency virus 1
[9] = Counterscreen for IDE inhibitors: Luminescence-based cell-based high throughput dose response assay to identify compounds that are cytotoxic to HEK cells. [Related pubchem assays: 434962 (Primary screen (IDE inhibitors in singlicate)), 449730 (Counterscreen (Cytotoxicity in triplicate)), 435028 (Confirmation (IDE inhibitors in triplicate)) …; format: functional; details: HEK293
[10] = target: T4, Sentrin-specific protease 1 (Homo sapiens, UniProt Q9P0U3); test: Dose response confirmation of small molecule inhibitors of the catalytic domain of the SUMO protease, SENP1 in a FRET assay.; format: functional; details: read-out: IC50_Mean
T4 sequence (Q9P0U3 whole entry): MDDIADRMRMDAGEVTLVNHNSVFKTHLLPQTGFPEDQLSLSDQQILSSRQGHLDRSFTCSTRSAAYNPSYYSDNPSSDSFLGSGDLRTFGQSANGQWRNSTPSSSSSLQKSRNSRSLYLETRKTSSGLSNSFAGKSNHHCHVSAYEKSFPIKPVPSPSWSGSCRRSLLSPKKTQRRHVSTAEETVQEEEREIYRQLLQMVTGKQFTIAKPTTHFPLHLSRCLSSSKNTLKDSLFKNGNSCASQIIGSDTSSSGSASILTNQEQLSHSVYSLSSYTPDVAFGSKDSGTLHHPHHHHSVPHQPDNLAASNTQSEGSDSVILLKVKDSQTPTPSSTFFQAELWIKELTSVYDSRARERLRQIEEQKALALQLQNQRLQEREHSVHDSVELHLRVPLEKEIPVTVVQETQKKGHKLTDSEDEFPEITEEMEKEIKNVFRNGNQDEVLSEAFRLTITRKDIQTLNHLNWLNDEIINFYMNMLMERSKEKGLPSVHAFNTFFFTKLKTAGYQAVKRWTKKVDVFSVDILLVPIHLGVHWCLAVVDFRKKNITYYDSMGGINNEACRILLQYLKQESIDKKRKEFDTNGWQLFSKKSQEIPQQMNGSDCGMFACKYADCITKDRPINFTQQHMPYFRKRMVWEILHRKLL

[11] = target: T4, Sentrin-specific protease 1; test: potency of human SENP1 inhibitors, dose response, biochemical, kinetic FRET (AID 651697); format: functional; details: read-out: IC50_Mean
Insulin-degrading enzyme = target: T5, Insulin-degrading enzyme (Homo sapiens, UniProt P14735); test: Dose Response: Fluorescence polarization-based cell-based high throughput dose response assay for inhibitors of insulin-degrading enzyme (IDE). [Related pubchem assays: 434962 (Primary screen (IDE inhibitors in singlicate)), 449730 (Counterscreen (Cytotoxicity in triplicate)), 435028 (Confirmation (IDE inhibitors in triplicate)), 434984 (Summary …; format: functional
T5 sequence (P14735 whole entry): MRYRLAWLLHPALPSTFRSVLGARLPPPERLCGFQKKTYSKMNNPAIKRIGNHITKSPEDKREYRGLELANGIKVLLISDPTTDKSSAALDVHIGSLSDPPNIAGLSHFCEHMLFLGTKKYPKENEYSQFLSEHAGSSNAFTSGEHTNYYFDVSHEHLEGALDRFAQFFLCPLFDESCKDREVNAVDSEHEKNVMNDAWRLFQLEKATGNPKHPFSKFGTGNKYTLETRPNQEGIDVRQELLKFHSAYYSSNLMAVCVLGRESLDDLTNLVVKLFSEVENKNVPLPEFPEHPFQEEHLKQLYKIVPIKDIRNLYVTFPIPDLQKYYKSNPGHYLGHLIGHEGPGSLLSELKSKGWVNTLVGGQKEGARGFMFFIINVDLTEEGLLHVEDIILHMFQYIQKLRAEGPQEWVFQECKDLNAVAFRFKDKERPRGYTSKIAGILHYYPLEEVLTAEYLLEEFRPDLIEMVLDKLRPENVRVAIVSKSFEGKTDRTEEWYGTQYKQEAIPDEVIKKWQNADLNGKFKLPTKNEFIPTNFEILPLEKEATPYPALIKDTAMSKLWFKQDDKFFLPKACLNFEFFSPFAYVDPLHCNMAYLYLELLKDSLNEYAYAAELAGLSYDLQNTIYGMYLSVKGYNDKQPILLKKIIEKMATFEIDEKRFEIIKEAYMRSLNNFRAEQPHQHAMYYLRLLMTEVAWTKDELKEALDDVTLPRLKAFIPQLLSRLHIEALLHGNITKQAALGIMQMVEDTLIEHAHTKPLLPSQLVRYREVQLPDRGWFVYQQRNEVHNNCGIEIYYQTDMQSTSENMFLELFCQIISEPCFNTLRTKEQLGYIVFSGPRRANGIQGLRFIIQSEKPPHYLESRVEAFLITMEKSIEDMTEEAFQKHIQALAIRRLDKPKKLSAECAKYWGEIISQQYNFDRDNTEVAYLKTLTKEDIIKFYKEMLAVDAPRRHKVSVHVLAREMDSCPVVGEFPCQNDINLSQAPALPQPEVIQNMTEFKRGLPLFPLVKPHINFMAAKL

[12] = target: T6, Tyrosine-protein phosphatase non-receptor type 7 (Homo sapiens, UniProt P35236); format: functional
T6 sequence (P35236 whole entry): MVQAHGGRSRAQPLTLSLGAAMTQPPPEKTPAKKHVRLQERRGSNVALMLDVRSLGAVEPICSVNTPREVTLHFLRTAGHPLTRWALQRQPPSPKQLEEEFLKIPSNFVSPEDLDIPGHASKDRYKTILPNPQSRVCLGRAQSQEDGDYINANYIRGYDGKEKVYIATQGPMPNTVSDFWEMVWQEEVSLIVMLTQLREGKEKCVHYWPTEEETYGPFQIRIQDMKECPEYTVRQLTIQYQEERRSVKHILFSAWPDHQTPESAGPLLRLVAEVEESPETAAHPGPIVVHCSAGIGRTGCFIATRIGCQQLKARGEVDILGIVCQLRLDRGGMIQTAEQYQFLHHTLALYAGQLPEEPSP

[13] = target: T7, Dual specificity protein phosphatase 6 (Rattus norvegicus, UniProt Q64346)
T7 sequence (Q64346 whole entry): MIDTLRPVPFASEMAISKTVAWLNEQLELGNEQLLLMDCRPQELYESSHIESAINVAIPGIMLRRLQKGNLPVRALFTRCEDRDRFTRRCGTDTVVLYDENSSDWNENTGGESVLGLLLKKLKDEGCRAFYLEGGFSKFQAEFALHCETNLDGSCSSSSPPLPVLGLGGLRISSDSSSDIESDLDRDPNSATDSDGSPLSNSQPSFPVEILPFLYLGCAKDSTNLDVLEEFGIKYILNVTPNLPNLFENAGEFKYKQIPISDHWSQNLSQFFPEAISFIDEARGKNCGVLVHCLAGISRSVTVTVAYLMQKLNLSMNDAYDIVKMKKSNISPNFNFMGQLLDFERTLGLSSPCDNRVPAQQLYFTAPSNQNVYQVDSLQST

[14] = target: T7, Dual specificity protein phosphatase 6; format: functional
[15] = target: Heat shock 70 kDa protein 1A (Homo sapiens, UniProt P0DMV8); test: Hsp70 inhibitors, SAR follow-up, biochemical, fluorescence polarization (AID 1072)
[16] = target: Heat shock cognate 71 kDa protein (Homo sapiens, UniProt P11142); test: In Vitro Hsc70 Dose Response Fluorescence Polarization Assay. [Related pubchem assays: 1072 ]
[17] = target: Glyceraldehyde-3-phosphate dehydrogenase (Homo sapiens, UniProt P04406)
[18] = target: G2/mitotic-specific cyclin-B1 (Homo sapiens, UniProt P14635); test: G2/M cell cycle arrest in HeLa, late-stage follow-up, mechanism study for Wee1 degradation inhibitor project, FACS, panel member Cyclin B Degradation (AID 2088)
Wee1-like protein kinase = Wee1-like protein kinase (Homo sapiens, UniProt P30291); test: G2/M cell cycle arrest in HeLa, late-stage follow-up, mechanism study for Wee1 degradation inhibitor project, FACS, panel member Wee1 Degradation (AID 2088)
[19] = target: T8, Alkaline phosphatase, tissue-nonspecific isozyme (Homo sapiens, UniProt P05186)
T8 sequence (P05186 whole entry): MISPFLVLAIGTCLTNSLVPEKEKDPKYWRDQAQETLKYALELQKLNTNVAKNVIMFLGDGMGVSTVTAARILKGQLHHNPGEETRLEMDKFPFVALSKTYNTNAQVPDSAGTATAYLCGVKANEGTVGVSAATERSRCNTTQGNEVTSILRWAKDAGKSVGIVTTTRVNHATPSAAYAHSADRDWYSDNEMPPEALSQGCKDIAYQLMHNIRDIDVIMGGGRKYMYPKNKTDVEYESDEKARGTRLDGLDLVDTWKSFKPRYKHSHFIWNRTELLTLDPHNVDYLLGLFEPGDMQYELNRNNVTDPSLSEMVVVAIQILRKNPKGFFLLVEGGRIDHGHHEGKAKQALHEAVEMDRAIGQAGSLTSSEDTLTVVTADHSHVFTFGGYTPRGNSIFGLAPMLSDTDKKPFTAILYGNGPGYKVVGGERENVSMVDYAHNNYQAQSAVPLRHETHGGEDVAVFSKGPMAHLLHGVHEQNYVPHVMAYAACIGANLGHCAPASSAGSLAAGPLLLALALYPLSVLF

[20] = cytotoxicity toward NIH3T3 fibroblasts, dose response, counter-screen, cell-based, ATP luminescence, mouse fibroblasts (AID 2010); format: functional;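 further: cells exposed to compound for about 90 hours before reading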
[21] = inhibitors of intracellular T. cruzi replication, confirmation, NIH3T3 host cells, beta-gal luminescence (AID 2044); format: functional, cell-based;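 further: intracellular parasites grown in NIH/3T3 mouse fibroblasts as host cells; luminescent beta-galactosidase reporter signal from transgenic T. cruzi replicating inside host cells; inhibitors lower the luminescence signal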

T1 sequence (Q9NZJ5 whole entry): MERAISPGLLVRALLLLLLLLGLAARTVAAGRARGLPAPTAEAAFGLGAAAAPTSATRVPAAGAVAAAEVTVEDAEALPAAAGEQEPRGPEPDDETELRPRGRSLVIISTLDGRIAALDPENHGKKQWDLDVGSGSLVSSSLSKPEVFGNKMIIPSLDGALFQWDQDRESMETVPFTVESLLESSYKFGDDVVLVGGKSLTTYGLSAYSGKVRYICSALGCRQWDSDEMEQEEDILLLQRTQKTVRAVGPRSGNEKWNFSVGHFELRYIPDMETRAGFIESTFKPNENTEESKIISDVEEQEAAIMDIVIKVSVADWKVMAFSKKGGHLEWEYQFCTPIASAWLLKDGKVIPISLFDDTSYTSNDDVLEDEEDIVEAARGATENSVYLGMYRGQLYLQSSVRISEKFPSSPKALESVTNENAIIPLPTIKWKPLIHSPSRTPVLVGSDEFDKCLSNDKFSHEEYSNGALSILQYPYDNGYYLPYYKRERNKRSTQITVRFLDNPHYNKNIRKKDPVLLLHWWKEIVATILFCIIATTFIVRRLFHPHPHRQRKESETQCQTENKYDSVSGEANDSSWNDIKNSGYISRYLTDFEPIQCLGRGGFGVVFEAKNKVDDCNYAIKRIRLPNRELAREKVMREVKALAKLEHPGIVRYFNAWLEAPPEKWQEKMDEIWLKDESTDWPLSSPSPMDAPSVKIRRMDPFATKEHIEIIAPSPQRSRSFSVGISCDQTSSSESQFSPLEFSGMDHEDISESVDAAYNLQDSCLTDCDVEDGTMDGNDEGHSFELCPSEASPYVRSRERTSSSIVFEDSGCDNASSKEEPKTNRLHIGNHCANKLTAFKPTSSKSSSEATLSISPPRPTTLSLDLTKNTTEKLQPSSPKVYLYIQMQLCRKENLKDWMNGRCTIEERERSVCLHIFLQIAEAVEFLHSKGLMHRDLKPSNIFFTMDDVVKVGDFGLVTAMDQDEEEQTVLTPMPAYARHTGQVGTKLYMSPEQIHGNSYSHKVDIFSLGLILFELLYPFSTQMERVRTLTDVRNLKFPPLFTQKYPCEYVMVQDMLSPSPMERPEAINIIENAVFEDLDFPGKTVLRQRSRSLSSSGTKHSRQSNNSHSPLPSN
T3 sequence (Q92731 whole entry): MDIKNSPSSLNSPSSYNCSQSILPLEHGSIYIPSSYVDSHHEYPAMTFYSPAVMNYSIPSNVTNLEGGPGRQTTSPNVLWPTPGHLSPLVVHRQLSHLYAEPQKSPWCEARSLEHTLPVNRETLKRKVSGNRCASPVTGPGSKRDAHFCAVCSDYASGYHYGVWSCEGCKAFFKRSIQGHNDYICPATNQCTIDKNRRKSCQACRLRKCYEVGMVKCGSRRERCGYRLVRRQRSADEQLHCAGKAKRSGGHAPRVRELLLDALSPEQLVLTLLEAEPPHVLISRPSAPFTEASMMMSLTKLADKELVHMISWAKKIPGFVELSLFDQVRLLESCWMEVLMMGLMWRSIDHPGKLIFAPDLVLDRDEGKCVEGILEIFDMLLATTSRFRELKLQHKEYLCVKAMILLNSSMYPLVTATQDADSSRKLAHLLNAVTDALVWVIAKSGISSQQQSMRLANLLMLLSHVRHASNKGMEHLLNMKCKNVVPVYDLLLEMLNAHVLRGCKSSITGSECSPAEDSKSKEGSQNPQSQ
Sequence of Large T antigen (P03070 whole entry): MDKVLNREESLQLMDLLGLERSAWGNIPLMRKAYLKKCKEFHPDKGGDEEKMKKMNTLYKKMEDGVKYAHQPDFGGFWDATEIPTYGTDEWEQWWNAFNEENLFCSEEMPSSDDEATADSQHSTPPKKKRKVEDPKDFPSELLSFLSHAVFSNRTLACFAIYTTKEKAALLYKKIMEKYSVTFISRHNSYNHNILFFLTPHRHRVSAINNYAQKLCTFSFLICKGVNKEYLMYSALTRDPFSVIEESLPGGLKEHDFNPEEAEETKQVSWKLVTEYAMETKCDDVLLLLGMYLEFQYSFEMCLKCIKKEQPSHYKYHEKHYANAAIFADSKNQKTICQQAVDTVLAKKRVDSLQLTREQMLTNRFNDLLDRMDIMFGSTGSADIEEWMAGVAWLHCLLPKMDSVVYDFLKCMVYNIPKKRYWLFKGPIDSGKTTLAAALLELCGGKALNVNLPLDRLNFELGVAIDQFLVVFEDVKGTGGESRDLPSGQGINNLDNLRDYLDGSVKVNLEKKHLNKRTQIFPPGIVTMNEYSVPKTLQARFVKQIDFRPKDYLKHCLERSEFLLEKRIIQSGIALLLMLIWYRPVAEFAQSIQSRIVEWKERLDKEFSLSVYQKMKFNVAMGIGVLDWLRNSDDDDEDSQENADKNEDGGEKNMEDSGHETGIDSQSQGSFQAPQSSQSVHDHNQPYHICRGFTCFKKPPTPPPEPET
Sequence of Heat shock 70 kDa protein 1A (P0DMV8 whole entry): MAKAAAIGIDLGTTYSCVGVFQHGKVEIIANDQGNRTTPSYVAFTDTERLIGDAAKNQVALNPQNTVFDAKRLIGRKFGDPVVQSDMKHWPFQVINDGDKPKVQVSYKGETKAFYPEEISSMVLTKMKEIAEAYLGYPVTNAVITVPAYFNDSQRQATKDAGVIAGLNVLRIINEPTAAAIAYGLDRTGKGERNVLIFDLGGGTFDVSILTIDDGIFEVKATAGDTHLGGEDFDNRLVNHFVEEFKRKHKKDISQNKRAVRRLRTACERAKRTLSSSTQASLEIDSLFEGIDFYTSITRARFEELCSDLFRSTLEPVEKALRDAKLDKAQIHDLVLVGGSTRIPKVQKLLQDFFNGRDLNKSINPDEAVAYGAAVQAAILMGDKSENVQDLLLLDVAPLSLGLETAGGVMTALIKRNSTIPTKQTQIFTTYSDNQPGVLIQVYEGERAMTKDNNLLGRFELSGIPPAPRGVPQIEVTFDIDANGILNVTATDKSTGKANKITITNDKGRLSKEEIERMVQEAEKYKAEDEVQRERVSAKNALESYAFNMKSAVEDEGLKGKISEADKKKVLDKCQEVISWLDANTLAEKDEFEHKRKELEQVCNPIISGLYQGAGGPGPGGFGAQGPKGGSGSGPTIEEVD
Sequence of Glyceraldehyde-3-phosphate dehydrogenase (P04406 whole entry): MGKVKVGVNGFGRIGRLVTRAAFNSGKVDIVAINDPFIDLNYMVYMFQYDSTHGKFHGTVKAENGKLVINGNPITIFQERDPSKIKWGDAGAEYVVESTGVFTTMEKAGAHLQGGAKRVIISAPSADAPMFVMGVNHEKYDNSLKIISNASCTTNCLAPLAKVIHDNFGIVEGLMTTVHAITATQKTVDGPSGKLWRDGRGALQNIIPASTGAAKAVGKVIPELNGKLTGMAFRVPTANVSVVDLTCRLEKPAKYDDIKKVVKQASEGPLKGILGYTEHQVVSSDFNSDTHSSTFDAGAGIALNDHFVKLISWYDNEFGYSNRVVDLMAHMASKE
Sequence of Heat shock cognate 71 kDa protein (P11142 whole entry): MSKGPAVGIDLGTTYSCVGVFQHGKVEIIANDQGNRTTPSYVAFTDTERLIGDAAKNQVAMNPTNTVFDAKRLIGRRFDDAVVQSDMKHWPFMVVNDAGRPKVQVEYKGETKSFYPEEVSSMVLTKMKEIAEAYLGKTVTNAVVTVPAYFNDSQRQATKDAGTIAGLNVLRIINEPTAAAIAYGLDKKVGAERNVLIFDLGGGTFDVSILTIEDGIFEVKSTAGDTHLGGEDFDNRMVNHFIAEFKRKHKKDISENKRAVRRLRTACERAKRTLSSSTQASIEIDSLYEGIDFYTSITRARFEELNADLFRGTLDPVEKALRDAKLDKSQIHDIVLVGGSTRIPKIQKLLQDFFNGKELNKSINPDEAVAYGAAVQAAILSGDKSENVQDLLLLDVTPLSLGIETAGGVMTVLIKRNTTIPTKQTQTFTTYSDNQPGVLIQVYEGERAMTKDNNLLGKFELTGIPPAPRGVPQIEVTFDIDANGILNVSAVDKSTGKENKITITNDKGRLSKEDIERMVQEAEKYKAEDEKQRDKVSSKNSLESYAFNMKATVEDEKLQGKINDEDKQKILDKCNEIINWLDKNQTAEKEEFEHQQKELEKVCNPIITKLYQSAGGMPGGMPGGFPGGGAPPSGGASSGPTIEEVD
Sequence of Protein Rev (P05866 whole entry): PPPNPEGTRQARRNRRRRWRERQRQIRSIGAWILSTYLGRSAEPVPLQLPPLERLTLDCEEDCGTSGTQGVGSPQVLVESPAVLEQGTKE
Sequence of Lysosomal acid glucosylceramidase (P04062 whole entry): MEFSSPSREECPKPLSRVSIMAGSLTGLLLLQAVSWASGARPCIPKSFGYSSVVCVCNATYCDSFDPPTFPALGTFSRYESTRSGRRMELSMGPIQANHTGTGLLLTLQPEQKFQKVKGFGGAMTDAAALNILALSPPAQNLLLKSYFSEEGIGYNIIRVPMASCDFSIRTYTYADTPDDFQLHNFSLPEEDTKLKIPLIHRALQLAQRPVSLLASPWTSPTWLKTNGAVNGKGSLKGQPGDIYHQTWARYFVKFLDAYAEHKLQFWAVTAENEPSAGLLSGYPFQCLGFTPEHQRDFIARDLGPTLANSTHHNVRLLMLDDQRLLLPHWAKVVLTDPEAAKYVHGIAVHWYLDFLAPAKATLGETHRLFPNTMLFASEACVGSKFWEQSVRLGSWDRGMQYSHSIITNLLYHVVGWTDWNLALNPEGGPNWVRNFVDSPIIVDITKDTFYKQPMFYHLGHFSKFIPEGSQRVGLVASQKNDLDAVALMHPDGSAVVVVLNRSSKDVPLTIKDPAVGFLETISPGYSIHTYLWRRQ
Sequence of Procathepsin L (P07711 whole entry): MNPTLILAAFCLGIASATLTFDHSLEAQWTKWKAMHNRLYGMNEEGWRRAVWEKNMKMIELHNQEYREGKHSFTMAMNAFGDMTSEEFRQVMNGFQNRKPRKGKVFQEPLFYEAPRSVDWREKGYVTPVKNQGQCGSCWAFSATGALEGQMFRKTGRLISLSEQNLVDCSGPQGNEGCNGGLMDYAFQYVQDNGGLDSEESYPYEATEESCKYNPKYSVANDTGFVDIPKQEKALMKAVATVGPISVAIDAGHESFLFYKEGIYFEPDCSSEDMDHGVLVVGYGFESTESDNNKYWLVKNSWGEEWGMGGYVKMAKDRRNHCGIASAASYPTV

COc1ccc(Nc2nnc(C)c(O)n2)c(OC)c1
EC50 [1]: > 55.7 µM (not active) | EC50 [2]: > 55.7 µM (not active)

O=C1NC(=O)C(=Cc2ccc(-c3ccc(F)cc3O)o2)C(=O)N1
IC50 (Procathepsin L): > 59.6 µM (not active) | IC50 [3]: 63.8 µM (inactive) | IC50 (Aspartyl aminopeptidase): 4.13 µM (active) | IC50 (Large T antigen): 39.9 µM (active)

COc1ccc(CN(Cc2cc3cccc(C)c3nc2O)C(=O)N(C)C)cc1
EC50 [4]: > 10 µM (not active)

Cc1ccc(S(=O)(=O)Cc2ccc(C(=O)N3CCc4ccccc4C3)o2)cc1
IC50 (Estrogen receptor beta [5]): < 0.023 µM (not active) | IC50 (Estrogen receptor beta [6]): 4.88 µM (active) | IC50 (Bcl-2-like protein 10): 20.5 µM (active)

Cn1cnc(S(=O)(=O)Nc2ccc(OC(F)(F)F)cc2)c1
AC50 (Vibrio harveyi [7]): 3.13 µM (active) | AC50 (Vibrio harveyi [8]): 4.67 µM (active) | AC50 (Vibrio harveyi [8]; Vibrio harveyi): 5.06 µM (active)

COc1ccc(C2N=C(N)N=C(N)N2c2ccc(C)cc2)cc1 (centres undefined)
IC50 (Protein Rev): > 79.4 µM (not active)

CCN(CC)C(=O)Cn1cc(C(=O)C(=O)N2CC=C(c3ccccc3)CC2)c2ccccc21
IC50 [9]: 24.4 µM (not active) | IC50 [10]: 7.95 µM (active) | IC50 [11]: 20.4 µM (inactive) | IC50 (Insulin-degrading enzyme): 35.1 µM (not active)

CCOC(=O)c1ccccc1OC(=O)c1ccc2c(c1)C1C=CCC1C(C(=O)O)N2 (centres undefined)
IC50 [12]: 3.3 µM (active) | IC50 [13]: 14.1 µM (active) | IC50 [14]: 6.01 µM (active) | IC50 [15]: 35.1 µM (active) | IC50 [16]: 112 µM (active) | IC50 [17]: > 100 µM (not active)

CCOC(=O)c1cccc(NC(=O)CCCOc2cc(=O)n(C)c3ccccc23)c1
EC50 [18]: > 49.7 µM (inactive) | EC50 (Wee1-like protein kinase): > 49.7 µM (inactive)

CCOC(=O)c1c(NC(=O)N/N=C/c2ccccc2OCC)sc(C(C)=O)c1C
EC50 [19]: > 100 µM (not active) | EC50 [20]: > 60 µM (not active) | EC50 [21]: 2.88 µM (active)
